# Measured values from patent US20070117743A1, “New antitumoral compounds” (priority 2003, published 2007).
# Where a SMILES comes first, the peptide text is derived from it. Bridges are numbered along the chain shown (N, C = ends). [ ]: non-standard residue; d: D form. The star is where a group is joined. d(aThr) = C[C@@H](O)[C@@H](N)C(=O)O; Hexanoyl(5-Me) = CC(C)CCCC(=O)*; dCha = N[C@H](CC1CCCCC1)C(=O)O; Orn = NCCC[C@H](N)C(=O)O; Dhb = C/C=C(\N)C(=O)O
# Experiments:
# Assay type in all cases: cell-based, human
# [1] = system: IGROV-ET; assay: SRB colorimetric assay of cell growth and viability, IGROV-ET; settings: 48 hours exposure; for CC50: read-out: LC50 IGROV-ET
# [2] = system: A-549; assay: SRB colorimetric assay of cell growth and viability, A-549; settings: 48 hours exposure; for GI50: read-out: GI50 A-549; for CC50: read-out: LC50 A-549
# [3] = system: HT-29; assay: SRB colorimetric assay of cell growth and viability, HT-29; settings: 48 hours exposure; for GI50: read-out: GI50 HT-29; for CC50: read-out: LC50 HT-29
# [4] = system: HeLa; assay: SRB colorimetric assay of cell growth and viability, HeLa; settings: 48 hours exposure; for CC50: read-out: LC50 HELA
# [5] = system: SK-BR-3; assay: SRB colorimetric assay of cell growth and viability, SK-BR-3; settings: 48 hours exposure
# [6] = system: DU-145; assay: SRB colorimetric assay of cell growth and viability, DU-145; settings: 48 hours exposure
# [7] = system: K-562; assay: SRB colorimetric assay of cell growth and viability, K-562; settings: 48 hours exposure; for CC50: read-out: LC50 K-562
# [8] = system: HeLa-APL; assay: SRB colorimetric assay of cell growth and viability, HeLa-APL; settings: 48 hours exposure; for CC50: read-out: LC50 HELA-APL
# [9] = system: LNCaP; assay: SRB colorimetric assay of cell growth and viability, LNCaP; settings: 48 hours exposure; for GI50: read-out: GI50 LN-caP; for CC50: read-out: LC50 LN-caP
# [10] = system: LoVo-Dox; assay: SRB colorimetric assay of cell growth and viability, LoVo-Dox; settings: 48 hours exposure; for CC50: read-out: LC50 LOVO-DOX
# Method in brief: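 Continuous 48-hour exposure of cells plated at 5×10^3 per well, with compounds diluted in DMSO:EtOH:PBS (0.5:0.5:99) over 10 to 10^−8 μg/mL. Staining with SRB and reading at 490 nm give GI, TGI and LC.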
# [11] = system: SK-MEL-28; assay: SRB colorimetric assay of cell growth and viability, SK-MEL-28; settings: 48 hours exposure; for CC50: read-out: LC50 MEL-28
# [12] = system: LoVo; assay: SRB colorimetric assay of cell growth and viability, LoVo; settings: 48 hours exposure; for CC50: read-out: LC50 LOVO
# [13] = system: IGROV-1; assay: SRB colorimetric assay of cell growth and viability, IGROV-1; settings: 48 hours exposure
# [14] = system: PANC-1; assay: SRB colorimetric assay of cell growth and viability, PANC-1; settings: 48 hours exposure; for CC50: read-out: LC50 PANC-1
compound,measurement,setting,value
"C/C=C1\NC(=O)[C@H](Cc2ccccc2)NC(=O)[C@@H](CC2CCCCC2)NC(=O)[C@@H](CC2CCCCC2)NC(=O)[C@H](NC(=O)[C@@H](CC2CCCCC2)NC(=O)[C@H](CCCN)NC(=O)[C@H]2CCCN2C(=O)[C@H](NC(=O)[C@@H](NC(=O)[C@@H](NC(=O)[C@H](NC(=O)CCCC(C)C)C(C)C)[C@@H](C)O)C(C)C)C(C)C)[C@@H](C)OC(=O)[C@H](C(C)C)NC1=O [Compound 11, [D-Cha^4, D-Cha^5, D-Cha^7]-KF] ({Hexanoyl(5-Me)}-[dV]TV[dV][dP][Orn][dCha][d(aThr)][dCha][dCha]F[Dhb]V; ester 8-C)",GI50,[1],0.133 µM
same,TGI IGROV-ET,[1],3.03E−07 Molar
same,CC50,[1],1.29 µM
same,TGI A-549,[2],2.60E−07 Molar
same,GI50,[2],0.132 µM
same,CC50,[2],0.511 µM
same,TGI HT-29,[3],1.91E−07 Molar
same,GI50,[3],0.0974 µM
same,CC50,[3],0.377 µM
same,GI50,[4],0.223 µM
same,TGI HELA,[4],8.93E−07 Molar
same,CC50,[4],2.55 µM
same,GI50,[5],0.106 µM
same,LC50,[5],0.599 µM
same,TGI SK-BR-3,[5],2.52E−07 Molar
same,GI50,[6],0.22 µM
same,LC50 (concentration causing 50% net cell kill),[6],2.64 µM
same,TGI DU-145,[6],8.56E−07 Molar
same,GI50,[7],1.58 µM
same,TGI K-562,[7],2.56E−06 Molar
same,CC50,[7],4.14 µM
same,GI50,[8],0.211 µM
same,TGI HELA-APL,[8],8.31E−07 Molar
same,CC50,[8],2.32 µM
same,TGI LN-caP,[9],1.40E−06 Molar
same,GI50,[9],0.645 µM
same,CC50,[9],3.01 µM
same,GI50,[10],0.0819 µM
same,TGI LOVO-DOX,[10],1.64E−07 Molar
same,CC50,[10],0.326 µM
same,GI50,[11],0.455 µM
same,TGI MEL-28,[11],1.28E−06 Molar
same,CC50,[11],3.03 µM
same,GI50,[12],0.0974 µM
same,TGI LOVO,[12],1.99E−07 Molar
same,CC50,[12],0.406 µM
same,GI50,[13],0.19 µM
same,LC50 (concentration causing 50% net cell killing),[13],2.99 µM
same,TGI IGROV,[13],5.67E−07 Molar
same,GI50,[14],1.43 µM
same,TGI PANC-1,[14],2.74E−06 Molar
same,CC50,[14],5.25 µM
"C/C=C1\NC(=O)[C@H](Cc2ccccc2)NC(=O)[C@@H](C(C)C)NC(=O)[C@@H](C(C)C)NC(=O)[C@H](NC(=O)[C@H](NC(=O)[C@H](CCCN)NC(=O)[C@H]2CCCN2C(=O)[C@H](NC(=O)[C@@H](NC(=O)[C@@H](NC(=O)[C@H](NC(=O)CCCC(C)C)C(C)C)[C@@H](C)O)C(C)C)C(C)C)C(C)C)[C@@H](C)OC(=O)[C@H](C(C)C)NC1=O [Compound 12, [D-Val^5, D-Val^7]-KF] ({Hexanoyl(5-Me)}-[dV]TV[dV][dP][Orn][dV][d(aThr)][dV][dV]F[Dhb]V; ester 8-C)",GI50,[1],1.79 µM
same,TGI IGROV-ET,[1],2.97E−06 Molar
same,CC50,[1],4.93 µM
same,TGI A-549,[2],6.68E−06 Molar
same,GI50,[2],2.17 µM
same,CC50,[2],6.9 µM
same,TGI HT-29,[3],2.51E−06 Molar
same,GI50,[3],1.29 µM
same,CC50,[3],4.88 µM
same,GI50,[4],1.75 µM
same,TGI HELA,[4],2.98E−06 Molar
same,CC50,[4],5.07 µM
same,GI50,[5],1.74 µM
same,LC50,[5],5.38 µM
same,TGI SK-BR-3,[5],3.06E−06 Molar
same,GI50,[6],1.61 µM
same,LC50 (concentration causing 50% net cell kill),[6],4.92 µM
same,TGI DU-145,[6],2.82E−06 Molar
same,GI50,[7],3.19 µM
same,TGI K-562,[7],5.46E−06 Molar
same,CC50,[7],6.9 µM
same,GI50,[8],3.02 µM
same,TGI HELA-APL,[8],6.01E−06 Molar
same,CC50,[8],6.9 µM
same,TGI LN-caP,[9],3.79E−08 Molar
same,GI50,[9],2.8 µM
same,CC50,[9],5.14 µM
same,GI50,[10],0.952 µM
same,TGI LOVO-DOX,[10],1.97E−06 Molar
same,CC50,[10],4.08 µM
same,GI50,[11],1.68 µM
same,TGI MEL-28,[11],3.12E−06 Molar
same,CC50,[11],5.78 µM
same,GI50,[12],1.26 µM
same,TGI LOVO,[12],2.28E−06 Molar
same,CC50,[12],4.13 µM
same,GI50,[13],1.85 µM
same,LC50 (concentration causing 50% net cell killing),[13],4.93 µM
same,TGI IGROV,[13],3.01E−06 Molar
same,GI50,[14],4.67 µM
same,TGI PANC-1,[14],6.90E−06 Molar
same,CC50,[14],6.9 µM
"C/C=C1\NC(=O)[C@H](Cc2ccccc2)NC(=O)[C@@H](C(C)C)NC(=O)[C@@H]([C@@H](C)CC)NC(=O)[C@H](NC(=O)[C@H](NC(=O)[C@H](CCCN)NC(=O)[C@H]2CCCN2C(=O)[C@H](NC(=O)[C@@H](NC(=O)[C@@H](NC(=O)[C@H](NC(=O)CCCCCCCCCC)C(C)C)[C@@H](C)O)C(C)C)C(C)C)[C@@H](C)CC)[C@@H](C)OC(=O)[C@H](C(C)C)NC1=O [Compound 15, [Und^14]-KF]",GI50,[1],0.235 µM
same,TGI IGROV-ET,[1],8.41E−07 Molar
same,CC50,[1],3.34 µM
same,TGI A-549,[2],3.39E−07 Molar
same,GI50,[2],0.143 µM
same,CC50,[2],1.69 µM
same,TGI HT-29,[3],2.70E−07 Molar
same,GI50,[3],0.127 µM
same,CC50,[3],0.574 µM
same,GI50,[4],0.12 µM
same,TGI HELA,[4],2.65E−07 Molar
same,CC50,[4],0.588 µM
same,GI50,[5],0.0267 µM
same,LC50,[5],0.468 µM
same,TGI SK-BR-3,[5],7.43E−08 Molar
same,GI50,[6],0.162 µM
same,LC50 (concentration causing 50% net cell kill),[6],1.04 µM
same,TGI DU-145,[6],3.53E−07 Molar
same,GI50,[7],1.15 µM
same,TGI K-562,[7],2.18E−06 Molar
same,CC50,[7],4.1 µM
same,GI50,[8],0.229 µM
same,TGI HELA-APL,[8],8.47E−07 Molar
same,CC50,[8],3.55 µM
same,TGI LN-caP,[9],1.44E−06 Molar
same,GI50,[9],0.529 µM
same,CC50,[9],3.48 µM
same,GI50,[10],0.0408 µM
same,TGI LOVO-DOX,[10],1.65E−07 Molar
same,CC50,[10],0.478 µM
same,GI50,[11],0.169 µM
same,TGI MEL-28,[11],4.45E−07 Molar
same,CC50,[11],2.04 µM
same,GI50,[12],0.117 µM
same,TGI LOVO,[12],2.67E−07 Molar
same,CC50,[12],0.604 µM
same,GI50,[13],0.158 µM
same,LC50 (concentration causing 50% net cell killing),[13],1.54 µM
same,TGI IGROV,[13],3.72E−07 Molar
same,GI50,[14],1.23 µM
same,TGI PANC-1,[14],2.28E−06 Molar
same,CC50,[14],4.2 µM
"C/C=C1\NC(=O)[C@H](Cc2ccccc2)NC(=O)[C@@H](C(C)C)NC(=O)[C@@H]([C@@H](C)CC)NC(=O)[C@H](NC(=O)[C@H](NC(=O)[C@H](CCCN)NC(=O)[C@H]2CCCN2C(=O)[C@H](NC(=O)[C@@H](NC(=O)[C@@H](NC(=O)[C@H](NC(=O)CC[C@H](C)CC)C(C)C)[C@@H](C)O)C(C)C)C(C)C)[C@@H](C)CC)[C@@H](C)OC(=O)[C@H](C(C)C)NC1=O [Compound 16, [(4R)-MeHex^14]-KF]",GI50,[1],0.805 µM
same,TGI IGROV-ET,[1],1.62E−06 Molar
same,CC50,[1],3.26 µM
same,TGI A-549,[2],2.26E−06 Molar
same,GI50,[2],1.2 µM
same,CC50,[2],4.24 µM
same,TGI HT-29,[3],1.54E−06 Molar
same,GI50,[3],0.738 µM
same,CC50,[3],3.22 µM
same,GI50,[4],1.05 µM
same,TGI HELA,[4],1.93E−06 Molar
same,CC50,[4],3.55 µM
same,GI50,[5],1.25 µM
same,LC50,[5],3.86 µM
same,TGI SK-BR-3,[5],2.20E−06 Molar
same,GI50,[6],1.2 µM
same,LC50 (concentration causing 50% net cell kill),[6],3.82 µM
same,TGI DU-145,[6],2.14E−06 Molar
same,GI50,[7],3.73 µM
same,TGI K-562,[7],6.77E−06 Molar
same,CC50,[7],≥ 6.77 µM
same,GI50,[8],1.56 µM
same,TGI HELA-APL,[8],3.47E−06 Molar
same,CC50,[8],≥ 6.77 µM
same,TGI LN-caP,[9],2.46E−06 Molar
same,GI50,[9],1.5 µM
same,CC50,[9],4.04 µM
same,GI50,[10],0.288 µM
same,TGI LOVO-DOX,[10],7.71E−07 Molar
same,CC50,[10],2.19 µM
same,GI50,[11],1.14 µM
same,TGI MEL-28,[11],2.09E−06 Molar
same,CC50,[11],3.8 µM
same,GI50,[12],0.248 µM
same,TGI LOVO,[12],7.78E−07 Molar
same,CC50,[12],2.28 µM
same,GI50,[13],0.941 µM
same,LC50 (concentration causing 50% net cell killing),[13],3.5 µM
same,TGI IGROV,[13],1.81E−06 Molar
same,GI50,[14],4.7 µM
same,TGI PANC-1,[14],4.24E−06 Molar
same,CC50,[14],4.24 µM
